Reference: the NIST ThermoML archive (doi:10.1021/acs.jced.8b00521)

Test: xn = mol fraction of the nth substance listed
Details: Liquid; for viscosity: Capillary tube (Ostwald / Ubbelohde) method; for mass density: Vibrating tube method

CCCCCCCC(=O)OCC [ethyl octanoate] + CCCCCCCCCCCC(=O)OC
Details | mass density [kg/m3] | viscosity [mPa·s]
313.15 K, 8900 kPa, x2 = 0.1 | 855 | 1.33
313.15 K, 8900 kPa, x2 = 0.1999 | 855 | 1.42
313.15 K, 8960 kPa, x2 = 0.6999 | 858 | 1.93
313.15 K, 9000 kPa, x2 = 0.6001 | 857 | 1.81
313.15 K, 9010 kPa, x2 = 0.4 | 856 | 1.59
313.15 K, 9010 kPa, x2 = 0.9 | 859 | 2.15
313.15 K, 9030 kPa, x2 = 0.3001 | 855 | 1.52
313.15 K, 9030 kPa, x2 = 0.8001 | 858 | 2.06
313.15 K, 9050 kPa, x2 = 0.4999 | 857 | 1.7
313.15 K, 11910 kPa, x2 = 0.6001 | 859 | 1.87
313.15 K, 11950 kPa, x2 = 0.4 | 858 | 1.63
313.15 K, 11980 kPa, x2 = 0.3001 | 857 | 1.57
313.15 K, 12010 kPa, x2 = 0.1 | 856 | 1.37
313.15 K, 12010 kPa, x2 = 0.1999 | 856 | 1.47
313.15 K, 12010 kPa, x2 = 0.8001 | 860 | 2.11
313.15 K, 12020 kPa, x2 = 0.4999 | 858 | 1.74
313.15 K, 12070 kPa, x2 = 0.9 | 860 | 2.22
313.15 K, 12090 kPa, x2 = 0.6999 | 860 | 1.99
313.15 K, 14970 kPa, x2 = 0.8001 | 862 | 2.16
313.15 K, 14980 kPa, x2 = 0.6999 | 861 | 2.03
313.15 K, 15010 kPa, x2 = 0.6001 | 861 | 1.92
313.15 K, 15020 kPa, x2 = 0.3001 | 859 | 1.62
313.15 K, 15040 kPa, x2 = 0.4999 | 860 | 1.79
313.15 K, 15050 kPa, x2 = 0.1 | 858 | 1.41
313.15 K, 15050 kPa, x2 = 0.1999 | 858 | 1.51
313.15 K, 15050 kPa, x2 = 0.9 | 862 | 2.28
313.15 K, 15090 kPa, x2 = 0.4 | 859 | 1.69
323.15 K, 100 kPa, x2 = 0.1 | 841 | 1.03
323.15 K, 100 kPa, x2 = 0.1999 | 842 | 1.09
323.15 K, 100 kPa, x2 = 0.3001 | 842 | 1.13
323.15 K, 100 kPa, x2 = 0.4 | 843 | 1.19
323.15 K, 100 kPa, x2 = 0.4999 | 843 | 1.26
323.15 K, 100 kPa, x2 = 0.6001 | 843 | 1.33
323.15 K, 100 kPa, x2 = 0.6999 | 844 | 1.42
323.15 K, 100 kPa, x2 = 0.8001 | 844 | 1.51
323.15 K, 100 kPa, x2 = 0.9 | 844 | 1.61
323.15 K, 2930 kPa, x2 = 0.1 | 843 | 1.04
323.15 K, 2930 kPa, x2 = 0.1999 | 843 | 1.11
323.15 K, 2940 kPa, x2 = 0.3001 | 844 | 1.18
323.15 K, 2960 kPa, x2 = 0.6999 | 845 | 1.45
323.15 K, 2980 kPa, x2 = 0.6001 | – | 1.38
